Laboratory results from ChEMBL document CHEMBL4831514, “Novel betulin dicarboxylic acid ester derivatives as potent antiviral agents: Design, synthesis, biological evaluation, structure-activity relationship and in-silico study” (Eur J Med Chem, 2021).
Active and inactive are the calls of the source. No cut-off for these calls is given here.

Tests used:
MDCK = assay: (§1) Cytotoxicity against MDCK cells assessed as reduction in cell viability incubated for 72 hrs by MTT assay; type: cell-based, Canis lupus familiaris; settings: dog, mdck, 72 h
[1] = as §1; type: cell-based, Canis lupus familiaris; settings: dog, MDCK cells
Human adenovirus 5 [2] = assay: Antiviral activity against Human adenovirus 5 Adenoid 75 infected in A549 cells assessed as reduction in virus titer preincubated for 24 hrs followed by viral infection and measured after 72 hrs by microscopic analysis; type: functional, organism-based
Enterovirus E = assay: Antiviral activity against Enterovirus E LCR-4 infected in A549 cells assessed as inhibition of viral adsorption at early stage of replication treated for 1 hr during viral infection followed by replacement with fresh medium and measured after 72 hrs by MTT assay; type: functional, organism-based
Human alphaherpesvirus 1 [3] = assay: Antiviral activity against Human herpesvirus-1 MacIntyre infected in A549 cells assessed as inhibition of viral adsorption at early stage of replication treated for 1 hr during viral infection followed by replacement with fresh medium and measured after 48 hrs by MTT assay; type: functional, organism-based
A549 = assay: (§2) Cytotoxicity against human A549 cells assessed as reduction in cell viability incubated for 48 hrs by MTT assay; type: cell-based; settings: a549, 48 h
Human adenovirus 5 [4] = assay: Antiviral activity against Human adenovirus 5 Adenoid 75 infected in A549 cells assessed as inhibition of viral adsorption at early stage of replication treated for 1 hr during viral infection followed by replacement with fresh medium and measured after 72 hrs by MTT assay; type: functional, organism-based
[5] = test system: Vesicular stomatitis virus; assay: Antiviral activity against Vesicular stomatitis virus Indiana infected in A549 cells assessed as reduction in virus titer preincubated for 24 hrs followed by viral infection and measured after 72 hrs by microscopic analysis; type: functional, organism-based
Human alphaherpesvirus 1 [6] = assay: Antiviral activity against Human herpesvirus 1 MacIntyre infected in A549 cells assessed as reduction in virus titer preincubated for 24 hrs followed by viral infection and measured after 72 hrs by microscopic analysis; type: functional, organism-based
Human alphaherpesvirus 1 [7] = assay: (§3) Potency index, ratio of acyclovir EC50 to test compound EC50 for antiviral activity against Human herpesvirus 1 MacIntyre infected in A549 cells assessed as reduction in virus titer treated 1 hr post viral infection followed by replacement with fresh medium with compounds and measured after 48 hrs by MTT assay; type: functional
[8] = as §2; type: cell-based; settings: A549 cells
Human alphaherpesvirus 1 [9] = assay: Antiviral activity against Human herpesvirus 1 MacIntyre infected in A549 cells assessed as reduction in virus titer treated 1 hr post viral infection followed by replacement with fresh medium with compounds and measured after 48 hrs by MTT assay; type: functional, organism-based; settings: Human alphaherpesvirus 1, MacIntyre
[10] = as §3, with “Selectivity” for “Potency”, “CC50 for cytotoxicity against human A549 cells” for “acyclovir EC50”, “to” for “to test compound”, “72” for “48”; type: toxicity, cell-based; settings: read-out: Selectivity Index

C#CC1(NC(=O)/C(C)=C/C(=O)OC[C@]23CC[C@@H](C(=C)C)[C@@H]2[C@H]2CC[C@@H]4[C@@]5(C)CC[C@H](O)C(C)(C)[C@@H]5CC[C@@]4(C)[C@]2(C)CC3)CCCCC1
CC20 (MDCK): 54.47 µM | CC50 at 72 h [1]: 54.5 µM | Activity (Human adenovirus 5 [2]): inactive | Activity (Enterovirus E): inactive | Activity (Human alphaherpesvirus 1 [3]): inactive | CC20 (A549): 54.47 µM | Activity (Human adenovirus 5 [4]): inactive | Activity [5]: inactive | Activity (Human alphaherpesvirus 1 [6]): inactive

C=C(C)[C@@H]1CC[C@]2(COC(=O)c3ccccc3C(=O)N3CCSCC3)CC[C@]3(C)[C@H](CC[C@@H]4[C@@]5(C)CC[C@H](O)C(C)(C)[C@@H]5CC[C@]43C)[C@@H]12
CC20 (MDCK): 7.3 µM | Activity (Human adenovirus 5 [2]): inactive | Activity (Enterovirus E): inactive | Ratio EC50 (Human alphaherpesvirus 1 [7]): 3 | Activity (Human alphaherpesvirus 1 [3]): inactive | CC50 at 48 h [8]: 350 µM | CC20 (A549): 58.9 µM | Activity (Human adenovirus 5 [4]): inactive | EC50 (Human alphaherpesvirus 1 [9]): 29.6 µM | Activity [5]: inactive | selectivity ratio at 72 h [10]: 11.8 | Activity (Human alphaherpesvirus 1 [6]): inactive

CCOC(=O)C1=C[C@@H](OC(CC)CC)[C@H](NC(C)=O)[C@@H](N)C1 [OSELTAMIVIR]
CC20 (MDCK): 320.51 µM | CC50 at 72 h [1]: 7870 µM

C=C(C)[C@@H]1CC[C@]2(COC(=O)/C=C(\C)C(=O)N3CCCCC3)CC[C@]3(C)[C@H](CC[C@@H]4[C@@]5(C)CC[C@H](O)C(C)(C)[C@@H]5CC[C@]43C)[C@@H]12
CC20 (MDCK): 4.26 µM | Activity (Human adenovirus 5 [2]): inactive | Activity (Enterovirus E): inactive | Ratio EC50 (Human alphaherpesvirus 1 [7]): 3 | Activity (Human alphaherpesvirus 1 [3]): inactive | CC50 at 48 h [8]: 68.7 µM | CC20 (A549): 34.34 µM | Activity (Human adenovirus 5 [4]): inactive | EC50 (Human alphaherpesvirus 1 [9]): 17.2 µM | Activity [5]: inactive | selectivity ratio at 72 h [10]: 4 | Activity (Human alphaherpesvirus 1 [6]): inactive

C=C(C)[C@@H]1CC[C@]2(COC(=O)CCCC(=O)O)CC[C@]3(C)[C@H](CC[C@@H]4[C@@]5(C)CC[C@H](O)C(C)(C)[C@@H]5CC[C@]43C)[C@@H]12
CC20 (MDCK): 11.22 µM | Activity (Human adenovirus 5 [2]): inactive | Activity (Enterovirus E): inactive | Ratio EC50 (Human alphaherpesvirus 1 [7]): 3 | Activity (Human alphaherpesvirus 1 [3]): inactive | CC50 at 48 h [8]: 80.8 µM | CC20 (A549): 22.44 µM | Activity (Human adenovirus 5 [4]): inactive | EC50 (Human alphaherpesvirus 1 [9]): 22.4 µM | Activity [5]: inactive | selectivity ratio at 72 h [10]: 3.6 | Activity (Human alphaherpesvirus 1 [6]): inactive

C=C(C)[C@@H]1CC[C@]2(COC(=O)CSCC(=O)O)CC[C@]3(C)[C@H](CC[C@@H]4[C@@]5(C)CC[C@H](O)C(C)(C)[C@@H]5CC[C@]43C)[C@@H]12
CC20 (MDCK): 21.08 µM | CC50 at 72 h [1]: 42.2 µM | Activity (Human adenovirus 5 [2]): inactive | Activity (Enterovirus E): inactive | Activity (Human alphaherpesvirus 1 [3]): inactive | CC20 (A549): 21.08 µM | Activity (Human adenovirus 5 [4]): inactive | Activity [5]: inactive | Activity (Human alphaherpesvirus 1 [6]): inactive

C=C(C)[C@@H]1CC[C@]2(COC(=O)c3cccc(C(=O)N4CCOCC4)c3)CC[C@]3(C)[C@H](CC[C@@H]4[C@@]5(C)CC[C@H](O)C(C)(C)[C@@H]5CC[C@]43C)[C@@H]12
CC20 (MDCK): 143.47 µM | Activity (Human adenovirus 5 [2]): inactive | Activity (Enterovirus E): inactive | Activity (Human alphaherpesvirus 1 [3]): inactive | CC20 (A549): 71.74 µM | Activity (Human adenovirus 5 [4]): inactive | Activity [5]: inactive | Activity (Human alphaherpesvirus 1 [6]): inactive

C=C(C)[C@@H]1CC[C@]2(COC(=O)c3ccccc3C(=O)O)CC[C@]3(C)[C@H](CC[C@@H]4[C@@]5(C)CC[C@H](O)C(C)(C)[C@@H]5CC[C@]43C)[C@@H]12
CC20 (MDCK): 42.3 µM | Activity (Human adenovirus 5 [2]): inactive | Activity (Enterovirus E): inactive | Activity (Human alphaherpesvirus 1 [3]): inactive | CC20 (A549): 21.15 µM | Activity (Human adenovirus 5 [4]): inactive | Activity [5]: inactive | Activity (Human alphaherpesvirus 1 [6]): inactive

C=C(C)[C@@H]1CC[C@]2(COC(=O)CCCC(=O)N3CCCCC3)CC[C@]3(C)[C@H](CC[C@@H]4[C@@]5(C)CC[C@H](O)C(C)(C)[C@@H]5CC[C@]43C)[C@@H]12
CC20 (MDCK): 4.25 µM | Activity (Human adenovirus 5 [2]): inactive | Activity (Enterovirus E): inactive | Ratio EC50 (Human alphaherpesvirus 1 [7]): 3 | Activity (Human alphaherpesvirus 1 [3]): inactive | CC20 (A549): 17.12 µM | Activity (Human adenovirus 5 [4]): inactive | Activity [5]: inactive | Activity (Human alphaherpesvirus 1 [6]): inactive

C#CC1(NC(=O)CCCCCCCCCC(=O)OC[C@]23CC[C@@H](C(=C)C)[C@@H]2[C@H]2CCC4[C@@]5(C)CC[C@H](O)C(C)(C)[C@@H]5CC[C@@]4(C)[C@]2(C)CC3)CCCCC1 (single isomer, unassigned)
CC20 (MDCK): 102.46 µM | Activity (Human adenovirus 5 [2]): inactive | Activity (Enterovirus E): inactive | Activity (Human alphaherpesvirus 1 [3]): inactive | CC20 (A549): 102.46 µM | Activity (Human adenovirus 5 [4]): inactive | Activity [5]: inactive | Activity (Human alphaherpesvirus 1 [6]): inactive

C=C(C)[C@@H]1CC[C@]2(COC(=O)c3ccccc3C(=O)N3CCCCC3)CC[C@]3(C)[C@H](CC[C@H]4C3(C)CC[C@H]3C(C)(C)[C@@H](O)CC[C@@]34C)[C@@H]12 (single isomer, unassigned)
CC20 (MDCK): 32.72 µM | Activity (Human adenovirus 5 [2]): inactive | Activity (Enterovirus E): inactive | Ratio EC50 (Human alphaherpesvirus 1 [7]): 3 | Activity (Human alphaherpesvirus 1 [3]): inactive | CC50 at 48 h [8]: 65.4 µM | CC20 (A549): 65.45 µM | Activity (Human adenovirus 5 [4]): inactive | EC50 (Human alphaherpesvirus 1 [9]): 32.7 µM | Activity [5]: inactive | selectivity ratio at 72 h [10]: 2 | Activity (Human alphaherpesvirus 1 [6]): inactive

C#CC1(NC(=O)CCC(=O)OC[C@]23CC[C@@H](C(=C)C)[C@@H]2[C@H]2CC[C@@H]4[C@@]5(C)CC[C@H](O)C(C)(C)[C@@H]5CC[C@@]4(C)[C@]2(C)CC3)CCCCC1
CC20 (MDCK): 0.77 µM | Activity (Human adenovirus 5 [2]): inactive | Activity (Enterovirus E): inactive | Activity (Human alphaherpesvirus 1 [3]): inactive | CC20 (A549): 110.38 µM | Activity (Human adenovirus 5 [4]): inactive | Activity [5]: inactive | Activity (Human alphaherpesvirus 1 [6]): inactive

C=C(C)[C@@H]1CC[C@]2(COC(=O)CCCC(=O)N3CCOCC3)CC[C@]3(C)[C@H](CC[C@@H]4[C@@]5(C)CC[C@H](O)C(C)(C)[C@@H]5CC[C@]43C)[C@@H]12
CC20 (MDCK): 18.85 µM | Activity (Human adenovirus 5 [2]): inactive | Activity (Enterovirus E): inactive | Ratio EC50 (Human alphaherpesvirus 1 [7]): 3 | Activity (Human alphaherpesvirus 1 [3]): inactive | CC50 at 48 h [8]: 151 µM | CC20 (A549): 18.85 µM | Activity (Human adenovirus 5 [4]): inactive | EC50 (Human alphaherpesvirus 1 [9]): 18.9 µM | Activity [5]: inactive | selectivity ratio at 72 h [10]: 8 | Activity (Human alphaherpesvirus 1 [6]): inactive

C#CC1(NC(=O)c2ccccc2C(=O)OC[C@]23CC[C@@H](C(=C)C)[C@@H]2[C@H]2CC[C@@H]4[C@@]5(C)CC[C@H](O)C(C)(C)[C@@H]5CC[C@@]4(C)[C@]2(C)CC3)CCCCC1
CC20 (MDCK): 1.57 µM | Activity (Human adenovirus 5 [2]): inactive | Activity (Enterovirus E): inactive | Activity (Human alphaherpesvirus 1 [3]): inactive | CC20 (A549): 109.82 µM | Activity (Human adenovirus 5 [4]): inactive | Activity [5]: inactive | Activity (Human alphaherpesvirus 1 [6]): inactive

C=C(C)[C@@H]1CC[C@]2(COC(=O)CCCCCCCCCC(=O)N3CCOCC3)CC[C@]3(C)[C@H](CC[C@@H]4[C@@]5(C)CC[C@H](O)C(C)(C)[C@@H]5CC[C@]43C)[C@@H]12
CC20 (MDCK): 139.08 µM | Activity (Human adenovirus 5 [2]): inactive | Activity (Enterovirus E): inactive | Ratio EC50 (Human alphaherpesvirus 1 [7]): 3 | Activity (Human alphaherpesvirus 1 [3]): inactive | CC50 at 48 h [8]: 164 µM | CC20 (A549): 34.77 µM | Activity (Human adenovirus 5 [4]): inactive | EC50 (Human alphaherpesvirus 1 [9]): 34.8 µM | Activity [5]: inactive | selectivity ratio at 72 h [10]: 4.7 | Activity (Human alphaherpesvirus 1 [6]): inactive

C=C(C)[C@@H]1CC[C@]2(COC(=O)c3ccccc3C(=O)N3CCOCC3)CC[C@]3(C)[C@H](CC[C@@H]4[C@@]5(C)CC[C@H](O)C(C)(C)[C@@H]5CC[C@]43C)[C@@H]12
CC20 (MDCK): 143.47 µM | Activity (Human adenovirus 5 [2]): inactive | Activity (Enterovirus E): inactive | Ratio EC50 (Human alphaherpesvirus 1 [7]): 3 | Activity (Human alphaherpesvirus 1 [3]): inactive | CC50 at 48 h [8]: 144 µM | CC20 (A549): 35.87 µM | Activity (Human adenovirus 5 [4]): inactive | EC50 (Human alphaherpesvirus 1 [9]): 35.9 µM | Activity [5]: inactive | selectivity ratio at 72 h [10]: 4 | Activity (Human alphaherpesvirus 1 [6]): inactive

C=C(C)[C@@H]1CC[C@]2(COC(=O)c3cccc(C(=O)N4CCSCC4)c3)CC[C@]3(C)[C@H](CC[C@@H]4[C@@]5(C)CC[C@H](O)C(C)(C)[C@@H]5CC[C@]43C)C12 (single isomer, unassigned)
CC20 (MDCK): 117.79 µM | Activity (Human adenovirus 5 [2]): inactive | Activity (Enterovirus E): inactive | Activity (Human alphaherpesvirus 1 [3]): inactive | CC20 (A549): 117.79 µM | Activity (Human adenovirus 5 [4]): inactive | Activity [5]: inactive | Activity (Human alphaherpesvirus 1 [6]): inactive
